Laboratory results: the supplement of paper PMC10307832

Experiments:
Experiment in all cases: relative viability (nuclei count vs DMSO), 5 days (fraction); higher = more cells survive
Bexarotene + Crizotinib = compound: C=C(c1ccc(C(=O)O)cc1)c1cc2c(cc1C)C(C)(C)CCC2(C)C [Bexarotene] + C[C@@H](Oc1cc(-c2cnn(C3CCNCC3)c2)cnc1N)c1c(Cl)ccc(F)c1Cl [Crizotinib] (partner 1 µM)
Method in brief: (§1)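 Dosing by pin tool came one day after lung cancer cell lines were seeded in 1536-well plates, using either one drug or a fixed anchor-drug dose plus five library-drug doses (not always all listed) in √10 steps. After 5 days, nuclei were counted on 4× images. Relative viability is treated-well nuclei count divided by vehicle-well nuclei count, and values are medians of duplicate plates.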

Bexarotene + Phenformin = compound: C=C(c1ccc(C(=O)O)cc1)c1cc2c(cc1C)C(C)(C)CCC2(C)C [Bexarotene] + N=C(N)NC(=N)NCCc1ccccc1 [Phenformin] (partner 250 µM)
Method in brief: as §1

Bexarotene + Navitoclax = compound: C=C(c1ccc(C(=O)O)cc1)c1cc2c(cc1C)C(C)(C)CCC2(C)C [Bexarotene] + CC1(C)CCC(c2ccc(Cl)cc2)=C(CN2CCN(c3ccc(C(=O)NS(=O)(=O)c4ccc(N[C@H](CCN5CCOCC5)CSc5ccccc5)c(S(=O)(=O)C(F)(F)F)c4)cc3)CC2)C1 [Navitoclax] (partner 0.5 µM)
Method in brief: as §1

Bexarotene + Decitabine = compound: C=C(c1ccc(C(=O)O)cc1)c1cc2c(cc1C)C(C)(C)CCC2(C)C [Bexarotene] + Nc1ncn([C@H]2C[C@H](O)[C@@H](CO)O2)c(=O)n1 [Decitabine] (partner 2 µM)
Method in brief: as §1

Cell Line	relative viability (Bexarotene + Crizotinib; first compound 0.08 µM)	relative viability (Bexarotene + Crizotinib; first compound 0.253 µM)	relative viability (Bexarotene + Crizotinib; first compound 0.8 µM)	relative viability (Bexarotene + Crizotinib; first compound 2.53 µM)	relative viability (Bexarotene + Crizotinib; first compound 8 µM)	relative viability (Bexarotene + Phenformin; first compound 0.08 µM)	relative viability (Bexarotene + Phenformin; first compound 0.253 µM)	relative viability (Bexarotene + Phenformin; first compound 0.8 µM)	relative viability (Bexarotene + Phenformin; first compound 2.53 µM)	relative viability (Bexarotene + Phenformin; first compound 8 µM)	relative viability (Bexarotene + Navitoclax; first compound 0.08 µM)	relative viability (Bexarotene + Navitoclax; first compound 0.253 µM)	relative viability (Bexarotene + Navitoclax; first compound 0.8 µM)	relative viability (Bexarotene + Navitoclax; first compound 2.53 µM)	relative viability (Bexarotene + Navitoclax; first compound 8 µM)	relative viability (Bexarotene + Decitabine; first compound 0.08 µM)	relative viability (Bexarotene + Decitabine; first compound 0.253 µM)	relative viability (Bexarotene + Decitabine; first compound 0.8 µM)	relative viability (Bexarotene + Decitabine; first compound 2.53 µM)	relative viability (Bexarotene + Decitabine; first compound 8 µM)
201T	0.994	0.882	0.974	0.958	0.982	0.582	0.516	0.5	0.519	0.458	1.22	1.21	1.23	1.2	1.12	0.828	0.858	0.746	0.781	0.692
A549	0.736	0.793	0.65	0.669	0.594	0.133	0.187	0.157	0.18	0.183	1.18	1.29	1.15	0.986	0.938	0.256	0.291	0.318	0.242	0.237
A-427	0.855	0.86	0.761	0.798	0.848	0.322	0.305	0.348	0.3	0.307	0.959	0.877	0.882	0.933	0.816	0.57	0.461	0.435	0.477	0.533
ABC-1	1.02	0.893	0.853	1.3	0.829	0.239	0.225	0.215	0.303	0.285	–	–	–	–	–	1.21	0.927	1.12	–	1.09
BEN	0.786	0.737	0.768	0.708	0.662	0.289	0.27	0.268	0.214	0.279	0.083	0.0587	0.063	0.0608	0.0559	0.706	0.666	0.723	0.647	0.692
CAL-12T	0.73	0.608	0.466	0.564	0.489	0.578	0.511	0.572	0.513	0.519	1.14	1.26	1.39	1.13	1.02	–	–	–	–	–
COR-L23	0.747	0.633	0.605	0.498	0.558	0.411	0.512	0.395	0.383	0.364	0.98	1.12	0.847	0.916	0.879	0.47	0.455	0.438	0.452	0.416
COR-L 105	0.863	0.951	0.88	0.857	0.699	0.614	0.472	0.519	0.517	0.569	0.715	0.856	0.882	0.983	0.617	0.731	0.704	0.664	0.616	0.578
Calu-6	0.786	0.753	0.72	0.823	0.94	–	–	–	–	–	0.804	0.801	0.694	0.784	0.827	–	–	–	–	–
ChaGo-K-1	1.19	1.23	1.15	–	1.15	0.563	0.496	0.539	0.533	0.536	0.98	0.987	1.07	–	0.991	0.57	0.512	0.509	0.489	0.497
EBC-1	0.196	0.212	0.237	0.217	0.192	–	–	–	–	–	0.43	0.401	0.333	0.344	0.369	–	–	–	–	–
EKVX	0.83	1.06	0.819	1.12	0.701	0.257	0.263	0.224	0.233	0.233	0.906	0.94	0.908	0.878	0.966	0.299	0.338	0.309	0.172	0.332
EMC-BAC-2	0.742	0.806	0.633	0.706	0.667	0.549	0.575	0.521	0.49	0.546	1.26	1.27	1.09	1.31	1.15	1.1	0.948	0.924	–	0.943
EPLC-272H	0.877	0.971	0.854	0.853	0.772	0.304	0.27	0.313	0.3	0.373	1.16	1.09	1.01	0.974	0.96	0.414	0.36	0.353	0.368	0.414
H3255	0.882	0.92	0.958	0.989	0.959	0.391	0.336	0.382	0.419	0.416	0.528	0.473	0.534	0.5	0.543	0.923	0.695	0.587	0.507	0.562
HARA	1.15	0.993	0.885	0.948	0.798	0.523	0.448	0.375	0.398	0.39	1.23	1.27	1.17	1.07	0.854	0.618	0.637	0.535	0.633	0.514
HCC-15	0.842	0.924	0.789	0.837	0.783	0.524	0.533	0.472	0.496	0.475	0.726	0.793	0.703	0.617	0.602	0.762	0.72	0.611	0.588	0.568

Cell Line	relative viability (Bexarotene + Crizotinib; first compound 0.08 µM)	relative viability (Bexarotene + Crizotinib; first compound 0.253 µM)	relative viability (Bexarotene + Crizotinib; first compound 0.8 µM)	relative viability (Bexarotene + Crizotinib; first compound 2.53 µM)	relative viability (Bexarotene + Crizotinib; first compound 8 µM)	relative viability (Bexarotene + Phenformin; first compound 0.08 µM)	relative viability (Bexarotene + Phenformin; first compound 0.253 µM)	relative viability (Bexarotene + Phenformin; first compound 0.8 µM)	relative viability (Bexarotene + Phenformin; first compound 2.53 µM)	relative viability (Bexarotene + Phenformin; first compound 8 µM)	relative viability (Bexarotene + Navitoclax; first compound 0.08 µM)	relative viability (Bexarotene + Navitoclax; first compound 0.253 µM)	relative viability (Bexarotene + Navitoclax; first compound 0.8 µM)	relative viability (Bexarotene + Navitoclax; first compound 2.53 µM)	relative viability (Bexarotene + Navitoclax; first compound 8 µM)	relative viability (Bexarotene + Decitabine; first compound 0.08 µM)	relative viability (Bexarotene + Decitabine; first compound 0.253 µM)	relative viability (Bexarotene + Decitabine; first compound 0.8 µM)	relative viability (Bexarotene + Decitabine; first compound 2.53 µM)	relative viability (Bexarotene + Decitabine; first compound 8 µM)
HCC-44	0.766	0.82	0.824	0.782	0.776	0.148	0.409	0.27	0.145	0.289	0.987	1.06	0.969	1.05	0.871	1.07	0.96	0.907	1.01	0.897
HCC-78	0.317	0.308	0.375	0.305	0.33	1.01	0.732	0.599	0.596	0.73	0.673	0.714	0.667	0.644	0.863	0.735	0.705	0.673	0.528	0.749
IA-LM	–	1.03	0.676	0.678	0.62	–	–	–	–	–	0.6	0.785	0.724	0.603	0.664	–	–	–	–	–
LCLC-103H	1.15	1.21	1.03	0.999	1.12	0.373	0.349	0.314	0.348	0.347	–	–	–	–	–	0.811	0.701	0.689	0.795	0.742
NCI-H358	0.541	0.603	0.497	0.66	0.49	0.48	0.396	0.372	0.33	0.39	–	–	–	–	–	0.212	0.216	0.184	0.222	0.185
NCI-H522	–	–	–	–	–	0.612	0.521	0.591	0.518	0.626	–	–	–	–	–	0.642	0.666	0.653	0.673	0.609
NCI-H650	0.749	0.613	0.739	0.615	0.6	0.486	0.518	0.472	0.39	0.439	–	–	–	–	–	0.284	0.263	0.328	0.301	0.309
NCI-H661	0.866	1.13	1.02	0.96	1.04	0.314	0.296	0.261	0.283	0.272	–	–	–	–	–	0.606	0.542	0.559	0.509	0.496
NCI-H1299	1	1.03	1.03	0.964	1.02	–	–	–	–	–	1.05	1.07	1.06	1.09	1.04	–	–	–	–	–
NCI-H1395	–	–	–	–	–	0.456	0.457	0.412	0.415	0.471	1.19	1.11	1.05	1.07	1.1	0.801	0.686	0.72	0.713	0.731
NCI-H1563	0.842	0.843	0.916	0.876	0.81	0.682	0.665	0.669	0.674	0.619	–	–	–	–	–	–	–	–	–	–
NCI-H1648	–	–	–	–	–	–	–	–	–	–	–	–	–	–	–	0.489	0.409	0.451	0.36	0.465
NCI-H1703	0.414	0.601	0.57	0.421	0.522	–	–	–	–	–	1.08	1.14	0.915	0.913	0.692	–	–	–	–	–
NCI-H1793	–	–	–	–	–	0.51	0.386	0.36	0.37	0.358	0.351	0.556	0.332	0.35	0.464	0.54	0.434	0.563	0.469	0.328
NCI-H2228	0.512	0.462	0.374	0.356	0.458	0.31	0.372	0.276	0.264	0.3	0.822	0.71	0.455	0.931	0.721	–	–	–	–	–
NCI-H2342	–	–	–	–	–	0.62	0.544	0.605	0.647	0.72	–	–	–	–	–	0.815	0.736	0.76	0.807	0.728
SW 900	–	–	–	–	–	0.643	0.64	0.598	0.46	0.572	–	–	–	–	–	0.463	0.397	0.498	0.448	0.462
